Reference: patent US6737383B1, “Herbicidal oxadiazolidines” (priority 1999, dated 2004)

Columns and labels:
morningglory = test: Test B pre/postemergence morningglory; format: in vivo, Ipomoea hederacea
Summary of the method: (§1)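 Response is a visual 0-to-10 score relative to untreated plants, where 0 means no effect and 10 means complete control, taken twelve to sixteen days after application. Treatments went onto soil at planting and onto foliage of 1- to 4-leaf plants, using a surfactant-containing non-phytotoxic solvent.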

wild oat = test: Test B pre/postemergence wild oat; format: in vivo, Avena fatua
Summary of the method: as §1

pigweed = test: Test B pre/postemergence pigweed; format: in vivo, Amaranthus retroflexus
Summary of the method: as §1

[1] = Preemergence, Rate 62 g/ha, scale of 0 to 10 where 0 is no effect and 10 is complete control
[2] = Preemergence, Rate 250 g/ha, scale of 0 to 10 where 0 is no effect and 10 is complete control
[3] = Preemergence, Rate 500 g/ha, scale of 0 to 10 where 0 is no effect and 10 is complete control
[4] = Rate 62 g/ha, Postemergence, scale 0 to 10 (0 no effect, 10 complete control)
[5] = Rate 125 g/ha, Postemergence, scale of 0 to 10 where 0 is no effect and 10 is complete control
[6] = Rate 250 g/ha, Postemergence, scale of 0 to 10 where 0 is no effect and 10 is complete control
[7] = Postemergence, Rate 125 g/ha, scale 0 to 10, 0 is no effect, 10 is complete control
[8] = Preemergence, Rate 62 g/ha, scale 0 to 10 (0 no effect, 10 complete control)
[9] = Rate 62 g/ha, Postemergence, scale of 0 to 10 where 0 is no effect and 10 is complete control
[10] = Rate 500 g/ha, Postemergence, scale 0 to 10, 0 no effect, 10 complete control
[11] = Postemergence, Rate 250 g/ha, scale 0 to 10, 0 is no effect, 10 is complete control

| SMILES | Morningglory plant response rating (morningglory; [1]) | Morningglory plant response rating (0 to 10 scale) (morningglory; Preemergence, Rate 125 g/ha) | Morningglory plant response rating (morningglory; [2]) | Morningglory plant response rating (morningglory; [3]) | Morningglory plant response rating (morningglory; [4]) | Morningglory plant response rating (morningglory; [5]) | Plant response rating, Morningglory (morningglory; [6]) | Wild oats plant response rating (wild oat; [1]) | Wild oats plant response rating (0 to 10 scale) (wild oat; Preemergence, Rate 125 g/ha) | Wild oats plant response rating (wild oat; [2]) | Wild oats plant response rating (wild oat; [3]) | Wild oats plant response rating (wild oat; [4]) | Wild oats plant response rating (wild oat; [5]) | Plant response rating, Wild oats (wild oat; [6]) | Redroot pigweed plant response rating (pigweed; [1]) | Redroot pigweed plant response rating (0 to 10 scale) (pigweed; Preemergence, Rate 125 g/ha) | Redroot pigweed plant response rating (pigweed; [2]) | Redroot pigweed plant response rating (pigweed; [3]) | Redroot pigweed plant response rating (pigweed; [4]) | Redroot pigweed plant response rating (pigweed; [5]) | other results |
| --- | --- | --- | --- | --- | --- | --- | --- | --- | --- | --- | --- | --- | --- | --- | --- | --- | --- | --- | --- | --- | --- |
| CC(C)N(C(=O)n1oc(=O)n(Cc2nnsc2Cl)c1=O)c1ccccc1 [Compound 321] | 0 | 0 | 0 | 0 | 2 | 7 | 8 | 0 | 0 | 2 | 5 | 0 | 0 | 0 | 0 | 0 | 0 | 0 | 2 | 3 | Plant response rating, Redroot pigweed (pigweed; [6]): 4 |
| CCN(C(=O)n1oc(=O)n(Cc2ccco2)c1=O)C1CCCCC1 [Compound 312] | 0 | 0 | 0 | 0 | 0 | 0 | 0 | 0 | 0 | 0 | 0 | 0 | 0 | 0 | 0 | 0 | 0 | 0 | 0 | 0 | Plant response rating, Redroot pigweed (pigweed; [6]): 0 |
| CC(C)N(C(=O)n1oc(=O)n(C2CCCCCC2)c1=O)c1ccc(F)cc1F [Compound 342] |  | 0 | 0 | 0 |  |  |  |  | 0 | 0 | 4 |  |  |  |  | 0 | 0 | 0 |  |  | Plant response rating, Morningglory (morningglory; [7]): 7; Plant response rating, Morningglory (morningglory; [8]): 0; Morningglory plant response rating (morningglory; [9]): 7; Plant response rating, Morningglory (morningglory; [10]): 9; Plant response rating, Wild oats (wild oat; [7]): 0; Plant response rating, Wild oats (wild oat; [8]): 0; Wild oats plant response rating (wild oat; [9]): 0; Plant response rating, Wild oats (wild oat; [10]): 0; Plant response rating, Redroot pigweed (pigweed; [7]): 2; Plant response rating, Redroot pigweed (pigweed; [8]): 0; Redroot pigweed plant response rating (pigweed; [9]): 2; Plant response rating, Redroot pigweed (pigweed; [10]): 8 |
| CCOc1nc(C(F)(F)F)c(Cn2c(=O)on(C(=O)N(c3ccccc3)C(C)C)c2=O)s1 [Compound 379] |  | 0 | 0 | 0 |  |  |  |  | 0 | 0 | 0 |  |  |  |  | 0 | 0 | 0 |  |  | Plant response rating, Morningglory (morningglory; [7]): 7; Plant response rating, Morningglory (morningglory; [11]): 8; Plant response rating, Morningglory (morningglory; [8]): 0; Morningglory plant response rating (morningglory; [9]): 5; Plant response rating, Morningglory (morningglory; [10]): 10; Plant response rating, Wild oats (wild oat; [7]): 0; Plant response rating, Wild oats (wild oat; [11]): 0; Plant response rating, Wild oats (wild oat; [8]): 0; Wild oats plant response rating (wild oat; [9]): 0; Plant response rating, Wild oats (wild oat; [10]): 0; Plant response rating, Redroot pigweed (pigweed; [7]): 0; Plant response rating, Redroot pigweed (pigweed; [11]): 1; Plant response rating, Redroot pigweed (pigweed; [8]): 0; Redroot pigweed plant response rating (pigweed; [9]): 0; Plant response rating, Redroot pigweed (pigweed; [10]): 1 |
